Here are results for 2 molecules from patent US7217704B2, “LPA receptor agonists and antagonists and methods of use” (The University of Tennessee Research Foundation, priority 2003, dated 2007).

Entries after “also recorded” stand apart in the source; their conditions may differ.

The test system of assay [1] is IEC-6 cells. The experiment in a line: Camptothecin-induced DNA fragmentation (apoptosis) in IEC-6 cells, ELISA. It counts as cell-based. Conditions: Camptothecin 20 μM, LPA and FAP12 at 10 μM. The procedure: The experimental procedure utilized was substantially the same as that reported in Deng et al. (2002) and Deng et al., (2003).
Basically, IEC-6 cells were grown in DMEM medium supplemented with 5% fetal bovine serum, insulin (10 μg/ml), gentamycin sulfate (50 μg/ml), and incubated at 37° C. in a humidified 90% air–10% CO2 atmosphere. Medium was changed every other day. Sub-confluent cells were washed twice and replaced by DMEM without serum the night before experiments.
Damage and IEC-6 cell apoptosis was induced via either γ-irradiation or chemotherapy. 20 Gy single dose of [^137Cs] source γ-irradiation was used in all experiments. […] In some experiments, LPA was added at different times before or after irradiation. Treatment with 20 μM camptothecin of IEC-6 cells induces DNA fragmentation as measured by the ELISA assay at 16 h after treatment. DNA fragmentation was quantified using the Cell Death Detection ELISA kit from Boehringer (Indianapolis, Ind.) according to the instructions of the manufacturer. Samples were run in triplicate. A duplicate of the sample was used to quantify protein concentration using the BCA kit from Pierce (Rockford, Ill.). DNA fragmentation was expressed as absorbance units per μg protein per minute.
Background: An ELISA detects its analyte on a solid surface through an enzyme-linked reagent.

Assay [2] has as its target T1, LPA1 (Homo sapiens, UniProt Q92633).
T1 construct: expressed in transfected cells
Conditions: RH7777 cells expressing LPA1; previously reported in Virag et al. (2003); cited from earlier work.

Assay [3] addresses T2, LPA2 (Homo sapiens, UniProt Q9HBW0).
T2 construct: expressed in transfected cells
Conditions: previously reported in Virag et al. (2003), cited from earlier work.

Assay [4] has as its target T3, LPA3 (Homo sapiens, UniProt Q9UBY5).
T3 construct: expressed in transfected cells
T3 sequence (Q9UBY5 1-353): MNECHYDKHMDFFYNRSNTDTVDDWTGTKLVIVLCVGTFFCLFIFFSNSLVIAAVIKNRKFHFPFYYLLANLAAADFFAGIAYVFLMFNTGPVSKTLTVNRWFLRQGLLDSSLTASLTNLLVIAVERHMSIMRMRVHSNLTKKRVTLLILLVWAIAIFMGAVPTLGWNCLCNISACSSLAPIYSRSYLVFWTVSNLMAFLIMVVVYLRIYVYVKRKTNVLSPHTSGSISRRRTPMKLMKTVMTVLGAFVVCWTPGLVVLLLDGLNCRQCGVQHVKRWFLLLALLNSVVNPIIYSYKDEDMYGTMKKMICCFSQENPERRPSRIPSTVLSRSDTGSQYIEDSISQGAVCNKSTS
Conditions: RH7777 cells expressing LPA3; previously reported in Virag et al. (2003); cited from earlier work.

T2 sequence (Q9HBW0 whole entry): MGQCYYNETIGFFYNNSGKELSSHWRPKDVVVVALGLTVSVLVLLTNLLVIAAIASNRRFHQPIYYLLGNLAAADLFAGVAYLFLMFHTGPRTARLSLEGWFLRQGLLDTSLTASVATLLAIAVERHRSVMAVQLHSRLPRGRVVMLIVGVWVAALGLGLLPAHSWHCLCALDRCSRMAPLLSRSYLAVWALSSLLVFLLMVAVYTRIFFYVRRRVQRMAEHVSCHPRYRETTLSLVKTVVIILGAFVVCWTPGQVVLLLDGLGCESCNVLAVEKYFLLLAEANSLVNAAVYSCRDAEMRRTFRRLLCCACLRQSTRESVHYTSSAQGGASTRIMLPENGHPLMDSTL
T1 sequence (Q92633 whole entry): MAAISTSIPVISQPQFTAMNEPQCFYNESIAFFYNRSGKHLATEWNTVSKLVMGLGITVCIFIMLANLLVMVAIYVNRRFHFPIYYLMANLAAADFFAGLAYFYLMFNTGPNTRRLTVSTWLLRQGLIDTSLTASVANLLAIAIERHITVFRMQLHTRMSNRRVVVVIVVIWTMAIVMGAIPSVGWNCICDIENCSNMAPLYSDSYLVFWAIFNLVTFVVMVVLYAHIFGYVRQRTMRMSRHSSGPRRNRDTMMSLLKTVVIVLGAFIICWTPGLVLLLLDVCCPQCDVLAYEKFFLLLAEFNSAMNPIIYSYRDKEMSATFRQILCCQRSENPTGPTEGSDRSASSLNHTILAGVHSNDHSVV

One may read the EC50 as the concentration needed to bring the measured effect to its halfway point. What is called IC50 is the midpoint of a concentration-inhibition curve. For orientation: Ki means a dissociation constant, usually derived from enzyme kinetics or from competition with a known ligand. Regarding `CCCCCCCCCCCCOP(=O)(O)O` [Compound 2b], the “inhibition of Camptothecin-induced DNA fragmentation in words” value in assay [1] is “inhibited”. Further, in assay [2], the EC50 is above 30000 nM. For the same molecule, the IC50 in assay [3] (RH7777 cells expressing LPA2) was above 30000 nM. For the same molecule, in assay [3] (relative to LPA 18:1), the “LPA2 (Emax)” value is recorded as 50%. Also, in assay [4], the EC50 is above 30000 nM, the IC50 was 128 nM and the Ki was 61 nM.

Regarding lysophosphatidic acid [LPA], in assay [1], the “inhibition of Camptothecin-induced DNA fragmentation in words” value was “inhibited; also recorded: dose-dependently inhibit DNA fragmentation”.
